Here are results for five compounds from the supplement of paper PMC10307832.

One assay concerns LOU-NH91. Put plainly: relative viability (nuclei count vs DMSO), 5 days (fraction); higher = more cells survive. Conditions: first compound 8 µM. Put shortly: (§1)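 Dosing by pin tool came one day after lung cancer cell lines were seeded in 1536-well plates, using either one drug or a fixed anchor-drug dose plus five library-drug doses (not always all listed) in √10 steps. After 5 days, nuclei were counted on 4× images. Relative viability is treated-well nuclei count divided by vehicle-well nuclei count, and values are medians of duplicate plates.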
On to `CCCCCCCCCCCC1=C(O)C(=O)C=C(O)C1=O` [Embelin] + Nc1ncn([C@H]2C[C@H](O)[C@@H](CO)O2)c(=O)n1 [Decitabine] (partner 2 µM), for which the relative viability is 0.801.
`CCCCCCCCCCCC1=C(O)C(=O)C=C(O)C1=O` [Embelin] + COc1cccc2cc(-c3nc([C@H]4CC[C@H](C(=O)O)CC4)n4ncnc(N)c34)[nH]c12 [OSI-027] (partner 0.5 µM) yielded a relative viability of 0.755.
Still for that read-out and setting: under `CCCCCCCCCCCC1=C(O)C(=O)C=C(O)C1=O` [Embelin] + Nc1nc2[nH]cc(CCc3ccc(C(=O)N[C@@H](CCC(=O)O)C(=O)O)cc3)c2c(=O)[nH]1 [Pemetrexed] (partner 0.2 µM) stands 0.466.

The next assay relates to NCI-H661. Described as above. The settings on record: first compound 0.08 µM. Put shortly: as §1
`CCCCCCCCCCCC1=C(O)C(=O)C=C(O)C1=O` [Embelin] + Cc1cc(Nc2cc(N3CCN(C)CC3)nc(Sc3ccc(NC(=O)C4CC4)cc3)n2)n[nH]1 [Tozasertib] (partner 0.1 µM) had a relative viability of 0.366.
On the same count and under the same terms, the same measure for `CCCCCCCCCCCC1=C(O)C(=O)C=C(O)C1=O` [Embelin] + CC(=O)Nc1cccc(-n2c(=O)n(C3CC3)c(=O)c3c(Nc4ccc(I)cc4F)n(C)c(=O)c(C)c32)c1 [Trametinib] (partner 0.02 µM): 0.604.
In the case of `CCCCCCCCCCCC1=C(O)C(=O)C=C(O)C1=O` [Embelin] + Nc1ncn([C@H]2C[C@H](O)[C@@H](CO)O2)c(=O)n1 [Decitabine] (partner 2 µM), the relative viability was found to be 0.565.
On the same count and under the same terms, the same measure for `CCCCCCCCCCCC1=C(O)C(=O)C=C(O)C1=O` [Embelin] + COc1cccc2cc(-c3nc([C@H]4CC[C@H](C(=O)O)CC4)n4ncnc(N)c34)[nH]c12 [OSI-027] (partner 0.5 µM): 0.763.
Still for that read-out and setting: the same measure for `CCCCCCCCCCCC1=C(O)C(=O)C=C(O)C1=O` [Embelin] + Nc1nc2[nH]cc(CCc3ccc(C(=O)N[C@@H](CCC(=O)O)C(=O)O)cc3)c2c(=O)[nH]1 [Pemetrexed] (partner 0.2 µM): 0.953.

The same assay, now with this note: first compound 0.8 µM.
`CCCCCCCCCCCC1=C(O)C(=O)C=C(O)C1=O` [Embelin] + Cc1cc(Nc2cc(N3CCN(C)CC3)nc(Sc3ccc(NC(=O)C4CC4)cc3)n2)n[nH]1 [Tozasertib] (partner 0.1 µM) came in with a relative viability of 0.34.
Still for that read-out and setting: the same measure for `CCCCCCCCCCCC1=C(O)C(=O)C=C(O)C1=O` [Embelin] + CC(=O)Nc1cccc(-n2c(=O)n(C3CC3)c(=O)c3c(Nc4ccc(I)cc4F)n(C)c(=O)c(C)c32)c1 [Trametinib] (partner 0.02 µM): 0.729.
The same measure, in the same setting: the same measure for `CCCCCCCCCCCC1=C(O)C(=O)C=C(O)C1=O` [Embelin] + Nc1ncn([C@H]2C[C@H](O)[C@@H](CO)O2)c(=O)n1 [Decitabine] (partner 2 µM): 0.614; for `CCCCCCCCCCCC1=C(O)C(=O)C=C(O)C1=O` [Embelin] + COc1cccc2cc(-c3nc([C@H]4CC[C@H](C(=O)O)CC4)n4ncnc(N)c34)[nH]c12 [OSI-027] (partner 0.5 µM): 0.784; for `CCCCCCCCCCCC1=C(O)C(=O)C=C(O)C1=O` [Embelin] + Nc1nc2[nH]cc(CCc3ccc(C(=O)N[C@@H](CCC(=O)O)C(=O)O)cc3)c2c(=O)[nH]1 [Pemetrexed] (partner 0.2 µM): 0.936.

Still in this assay, the particulars now being: first compound 2.53 µM.
Turning to `CCCCCCCCCCCC1=C(O)C(=O)C=C(O)C1=O` [Embelin] + Cc1cc(Nc2cc(N3CCN(C)CC3)nc(Sc3ccc(NC(=O)C4CC4)cc3)n2)n[nH]1 [Tozasertib] (partner 0.1 µM), the relative viability turned out to be 0.318.
On to `CCCCCCCCCCCC1=C(O)C(=O)C=C(O)C1=O` [Embelin] + CC(=O)Nc1cccc(-n2c(=O)n(C3CC3)c(=O)c3c(Nc4ccc(I)cc4F)n(C)c(=O)c(C)c32)c1 [Trametinib] (partner 0.02 µM), for which the relative viability is 0.657.
Same read-out and setting: the same measure for `CCCCCCCCCCCC1=C(O)C(=O)C=C(O)C1=O` [Embelin] + Nc1ncn([C@H]2C[C@H](O)[C@@H](CO)O2)c(=O)n1 [Decitabine] (partner 2 µM): 0.649.
The compound `CCCCCCCCCCCC1=C(O)C(=O)C=C(O)C1=O` [Embelin] + COc1cccc2cc(-c3nc([C@H]4CC[C@H](C(=O)O)CC4)n4ncnc(N)c34)[nH]c12 [OSI-027] (partner 0.5 µM) displayed a relative viability of 0.8.
The same measure, in the same setting: the same measure for `CCCCCCCCCCCC1=C(O)C(=O)C=C(O)C1=O` [Embelin] + Nc1nc2[nH]cc(CCc3ccc(C(=O)N[C@@H](CCC(=O)O)C(=O)O)cc3)c2c(=O)[nH]1 [Pemetrexed] (partner 0.2 µM): 0.886.

Still in this assay, the particulars now being: first compound 8 µM.
In turn, `CCCCCCCCCCCC1=C(O)C(=O)C=C(O)C1=O` [Embelin] + Cc1cc(Nc2cc(N3CCN(C)CC3)nc(Sc3ccc(NC(=O)C4CC4)cc3)n2)n[nH]1 [Tozasertib] (partner 0.1 µM) came in with a relative viability of 0.337.
`CCCCCCCCCCCC1=C(O)C(=O)C=C(O)C1=O` [Embelin] + CC(=O)Nc1cccc(-n2c(=O)n(C3CC3)c(=O)c3c(Nc4ccc(I)cc4F)n(C)c(=O)c(C)c32)c1 [Trametinib] (partner 0.02 µM) yielded a relative viability of 0.521.
On the same count and under the same terms, under `CCCCCCCCCCCC1=C(O)C(=O)C=C(O)C1=O` [Embelin] + Nc1ncn([C@H]2C[C@H](O)[C@@H](CO)O2)c(=O)n1 [Decitabine] (partner 2 µM) stands 0.541; under `CCCCCCCCCCCC1=C(O)C(=O)C=C(O)C1=O` [Embelin] + COc1cccc2cc(-c3nc([C@H]4CC[C@H](C(=O)O)CC4)n4ncnc(N)c34)[nH]c12 [OSI-027] (partner 0.5 µM), 0.769.
Same read-out and setting: under `CCCCCCCCCCCC1=C(O)C(=O)C=C(O)C1=O` [Embelin] + Nc1nc2[nH]cc(CCc3ccc(C(=O)N[C@@H](CCC(=O)O)C(=O)O)cc3)c2c(=O)[nH]1 [Pemetrexed] (partner 0.2 µM) stands 0.896.

The test system of another assay is EPLC-272H. The assay is described as above. The settings on record: first compound 0.08 µM. The essentials: as §1
Turning to `CCCCCCCCCCCC1=C(O)C(=O)C=C(O)C1=O` [Embelin] + Cc1cc(Nc2cc(N3CCN(C)CC3)nc(Sc3ccc(NC(=O)C4CC4)cc3)n2)n[nH]1 [Tozasertib] (partner 0.1 µM), the relative viability amounted to 0.213.
Still for that read-out and setting: under `CCCCCCCCCCCC1=C(O)C(=O)C=C(O)C1=O` [Embelin] + CC(=O)Nc1cccc(-n2c(=O)n(C3CC3)c(=O)c3c(Nc4ccc(I)cc4F)n(C)c(=O)c(C)c32)c1 [Trametinib] (partner 0.02 µM) stands 0.315; under `CCCCCCCCCCCC1=C(O)C(=O)C=C(O)C1=O` [Embelin] + Nc1ncn([C@H]2C[C@H](O)[C@@H](CO)O2)c(=O)n1 [Decitabine] (partner 2 µM), 0.363; under `CCCCCCCCCCCC1=C(O)C(=O)C=C(O)C1=O` [Embelin] + COc1cccc2cc(-c3nc([C@H]4CC[C@H](C(=O)O)CC4)n4ncnc(N)c34)[nH]c12 [OSI-027] (partner 0.5 µM), 0.256.
Still for that read-out and setting: under `CCCCCCCCCCCC1=C(O)C(=O)C=C(O)C1=O` [Embelin] + Nc1nc2[nH]cc(CCc3ccc(C(=O)N[C@@H](CCC(=O)O)C(=O)O)cc3)c2c(=O)[nH]1 [Pemetrexed] (partner 0.2 µM) stands 0.361.

The same assay, now with this note: first compound 0.8 µM.
`CCCCCCCCCCCC1=C(O)C(=O)C=C(O)C1=O` [Embelin] + Cc1cc(Nc2cc(N3CCN(C)CC3)nc(Sc3ccc(NC(=O)C4CC4)cc3)n2)n[nH]1 [Tozasertib] (partner 0.1 µM) registered a relative viability of 0.182.
